From PubChem BioAssay (NCI)
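Five compound concentrations were applied to cells in 96-well plates for 48 hours; endpoints were derived by simple linear interpolation of the resulting dose-response curve. GI50 is the concentration that inhibits growth by half. At the TGI there is no net growth.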

Columns and labels:
Assay in all cases: NCI-60 cell line screen, 48 h
HOP-92 NSCLC = test system: HOP-92 NSCLC
ACHN renal = test system: ACHN renal
CAKI-1 renal = test system: CAKI-1 renal
K-562 leukemia = test system: K-562 leukemia
MALME-3M melanoma = test system: MALME-3M melanoma
DU-145 prostate = test system: DU-145 prostate
SF-268 CNS = test system: SF-268 CNS
KM12 colon = test system: KM12 colon
UACC-62 melanoma = test system: UACC-62 melanoma
RPMI-8226 leukemia = test system: RPMI-8226 leukemia
IGROV1 ovarian = test system: IGROV1 ovarian
SF-295 CNS = test system: SF-295 CNS
UO-31 renal = test system: UO-31 renal
MOLT-4 leukemia = test system: MOLT-4 leukemia
A549 NSCLC = test system: A549 NSCLC
HCC-2998 colon = test system: HCC-2998 colon
TK-10 renal = test system: TK-10 renal
SW-620 colon = test system: SW-620 colon
LOX IMVI melanoma = test system: LOX IMVI melanoma
SK-MEL-5 melanoma = test system: SK-MEL-5 melanoma
MDA-MB-231 breast = test system: MDA-MB-231 breast
SK-MEL-2 melanoma = test system: SK-MEL-2 melanoma
HL-60(TB) leukemia = test system: HL-60(TB) leukemia
SNB-19 CNS = test system: SNB-19 CNS
A498 renal = test system: A498 renal
SN12C renal = test system: SN12C renal
OVCAR-5 ovarian = test system: OVCAR-5 ovarian
OVCAR-3 ovarian = test system: OVCAR-3 ovarian
MDA-MB-435 = test system: MDA-MB-435
HS 578T breast = test system: HS 578T breast
NCI/ADR-RES ovarian = test system: NCI/ADR-RES ovarian
HCT-116 colon = test system: HCT-116 colon
NCI-H460 lung = test system: NCI-H460 lung
OVCAR-8 ovarian = test system: OVCAR-8 ovarian
SR leukemia = test system: SR leukemia
HT29 colon = test system: HT29 colon
M14 melanoma = test system: M14 melanoma
T-47D breast = test system: T-47D breast
SK-MEL-28 melanoma = test system: SK-MEL-28 melanoma
EKVX NSCLC = test system: EKVX NSCLC
OVCAR-4 ovarian = test system: OVCAR-4 ovarian
UACC-257 melanoma = test system: UACC-257 melanoma
NCI-H522 lung = test system: NCI-H522 lung
HCT-15 colon = test system: HCT-15 colon
U251 CNS = test system: U251 CNS
PC-3 prostate = test system: PC-3 prostate
RXF 393 renal = test system: RXF 393 renal
MCF7 breast = test system: MCF7 breast
786-0 renal = test system: 786-0 renal
SNB-75 CNS = test system: SNB-75 CNS
BT-549 breast = test system: BT-549 breast
SF-539 CNS = test system: SF-539 CNS
CCRF-CEM leukemia = test system: CCRF-CEM leukemia
NCI-H23 lung = test system: NCI-H23 lung
HOP-62 NSCLC = test system: HOP-62 NSCLC
COLO 205 colon = test system: COLO 205 colon
SK-OV-3 ovarian = test system: SK-OV-3 ovarian
NCI-H226 lung = test system: NCI-H226 lung

## CCOC(=O)c1ccc2c(c1)c1c(C)c3ccncc3c(C)c1n2C
HOP-92 NSCLC
  GI50: 0.303 µM
  TGI: 2.36 µM
ACHN renal
  GI50: 0.265 µM
  TGI: 1.32 µM
CAKI-1 renal
  GI50: 0.287 µM
  TGI: 1.49 µM
K-562 leukemia
  GI50: 0.413 µM
  TGI: 2.53 µM
MALME-3M melanoma
  GI50: 0.375 µM
  TGI: 1.68 µM
DU-145 prostate
  GI50: 0.546 µM
  TGI: 2.33 µM
SF-268 CNS
  GI50: 0.846 µM
  TGI: 3.48 µM
KM12 colon
  GI50: 0.517 µM
  TGI: 2.58 µM
UACC-62 melanoma
  GI50: 0.378 µM
  TGI: 1.73 µM
RPMI-8226 leukemia
  GI50: 0.44 µM
  TGI: 2.44 µM
IGROV1 ovarian
  GI50: 0.211 µM
  TGI: 1.46 µM
SF-295 CNS
  GI50: 0.516 µM
  TGI: 4.63 µM
UO-31 renal
  GI50: 0.165 µM
  TGI: 1.4 µM
MOLT-4 leukemia
  GI50: 0.393 µM
  TGI: 3.19 µM
A549 NSCLC
  GI50: 0.382 µM
  TGI: 1.88 µM
HCC-2998 colon
  GI50: 1.09 µM
  TGI: 2.95 µM
TK-10 renal
  GI50: 1.15 µM
  TGI: 3.05 µM
SW-620 colon
  GI50: 0.322 µM
  TGI: 1.8 µM
LOX IMVI melanoma
  GI50: 0.349 µM
  TGI: 1.62 µM
SK-MEL-5 melanoma
  GI50: 0.384 µM
  TGI: 1.51 µM
MDA-MB-231 breast
  GI50: 0.622 µM
  TGI: 2.4 µM
SK-MEL-2 melanoma
  GI50: 0.897 µM
  TGI: 2.58 µM
HL-60(TB) leukemia
  GI50: 1.16 µM
  TGI: 6.08 µM
SNB-19 CNS
  GI50: 0.441 µM
  TGI: 2.32 µM
A498 renal
  GI50: 0.664 µM
  TGI: 2.05 µM
SN12C renal
  GI50: 0.457 µM
  TGI: 2.31 µM
OVCAR-5 ovarian
  GI50: 0.796 µM
  TGI: 2.84 µM
OVCAR-3 ovarian
  GI50: 0.692 µM
  TGI: 2.62 µM
MDA-MB-435
  GI50: 0.649 µM
  TGI: 1.96 µM
HS 578T breast
  GI50: 0.543 µM
  TGI: 3.24 µM
NCI/ADR-RES ovarian
  GI50: 0.47 µM
  TGI: 2.9 µM
HCT-116 colon
  GI50: 0.287 µM
  TGI: 1.38 µM
NCI-H460 lung
  GI50: 0.68 µM
  TGI: 3.46 µM
OVCAR-8 ovarian
  GI50: 0.436 µM
  TGI: 3.25 µM
SR leukemia
  GI50: 0.269 µM
  TGI: 3.95 µM
HT29 colon
  GI50: 0.362 µM
  TGI: 1.78 µM
M14 melanoma
  GI50: 0.505 µM
  TGI: 2.08 µM
T-47D breast
  GI50: 0.855 µM
  TGI: 3.5 µM
SK-MEL-28 melanoma
  GI50: 0.539 µM
  TGI: 1.9 µM
EKVX NSCLC
  GI50: 0.384 µM
  TGI: 2.37 µM
OVCAR-4 ovarian
  GI50: 0.745 µM
  TGI: 2.55 µM
UACC-257 melanoma
  GI50: 0.472 µM
  TGI: 2.6 µM
NCI-H522 lung
  GI50: 0.564 µM
  TGI: 2.55 µM
HCT-15 colon
  GI50: 0.381 µM
  TGI: 1.65 µM
U251 CNS
  GI50: 0.468 µM
  TGI: 1.98 µM
PC-3 prostate
  GI50: 0.486 µM
  TGI: 2.15 µM
RXF 393 renal
  GI50: 0.349 µM
  TGI: 1.67 µM
MCF7 breast
  GI50: 0.346 µM
  TGI: 1.75 µM
786-0 renal
  GI50: 0.642 µM
  TGI: 2.03 µM
SNB-75 CNS
  GI50: 0.38 µM
  TGI: 1.95 µM
BT-549 breast
  GI50: 1.27 µM
  TGI: 3.7 µM
SF-539 CNS
  GI50: 0.467 µM
  TGI: 1.92 µM
CCRF-CEM leukemia
  GI50: 0.851 µM
  TGI: 8.64 µM
NCI-H23 lung
  GI50: 0.376 µM
  TGI: 1.98 µM
HOP-62 NSCLC
  GI50: 0.408 µM
  TGI: 2.16 µM
COLO 205 colon
  GI50: 0.35 µM
  TGI: 1.82 µM
SK-OV-3 ovarian
  GI50: 0.721 µM
  TGI: 2.99 µM
NCI-H226 lung
  GI50: 0.26 µM
  TGI: 1.45 µM
